According to paper PMC7313430, “Heme-Dependent ER Stress Apoptosis: A Mechanism for the Selective Toxicity of the Dihydroartemisinin, NSC735847, in Colorectal Cancer Cells” (Frontiers in Oncology, 2020):

Columns and labels:
[1] = tested on: subcutaneous or orthotopic non-small cell lung cancer lesions; settings: athymic nude mice with subcutaneous or orthotopic non-small cell lung cancer lesions; cited from earlier work
HCT116 cells = assay: MTS cell viability assay, colon cancer cells HCT116; type: cell-based, human
Procedure: (§1) The human colon cancer cell lines HT29 and HCT116 were cultured in McCoy's 5A medium (Sigma Aldrich, St. Louis, MO) containing 10% heat-inactivated fetal bovine serum (FBS), penicillin (100 units/ml), and streptomycin (100 μg/ml). The non-tumorigenic colon cell line, FHC, was cultured in DMEM: F12 (1:1) medium supplemented with 10% heat inactivated FBS, 25 mM HEPES (Thermo Fisher Scientific Inc., IL), 10 ng/ml cholera toxin (Sigma Aldrich, St. Louis, MO), 0.005 mg/ml insulin (Thermo Fisher Scientific Inc., IL), 0.005 mg/ml, transferrin (Sigma Aldrich, St. Louis, MO), 100 ng/ml hydrocortisone (Sigma Aldrich, St. Louis, MO), 20 ng/mL human recombinant epidermal growth factor (Thermo Fisher Scientific Inc., IL), 100 units/ml penicillin, and 100 μg/ml streptomycin.
(§2) Cells were cultured in 96-well-plates for 48 h before treatment. Serum-free media containing different agents was added to the cells at the concentration and time period described in the figure legend. MTS reagent (Promega, Madison, WI) was then added to each well and the absorbance was measured at 495 nm as directed by the manufacturer. In the presence of MTS reagent, the absorbance reading is proportional to the number of viable cells. The half-maximal inhibitory concentration (IC50) of the tested compounds is the concentration that reduces the viability of cells by 50%. IC50 was calculated after 24 h of treatment ([30], [31]) as described previously ([32]–[34]) from dose-response curves (log drug concentration vs. percentage viability from untreated cells) generated by non-linear regression analysis with GraphPad Prism 5 software (GraphPad Software, San Diego, California).

[2] = tested on: caspase 3/7 activity in HCT-116 cells; assay: Caspase-Glo 3/7 activity assay in HCT116; type: cell-based, human; settings: 16 h, 1.25-10 μM
Procedure: (§3) The cells were plated in white-walled 96-well-plates and then they were cultured at 37°C for 48 h. Serum-free culture medium containing the appropriate concentration of different agents was added to the cells for the indicated period of time. Caspase-Glo 3/7 reagent (Promega, Madison, WI) was added to each well and luminescence was detected as directed by the manufacturer. The Caspase-Glo 3/7 kit measures the activity of the executioner caspases 3 and 7 using the luminogenic substrate (Z-DEVD-aminoluciferin) as substrate.

[3] = tested on: ferritin H mRNA in HT29 cells; assay: Ferritin mRNA qRT-PCR; type: cell-based, human; settings: HT29, 10 μM, 4, 8 and 16 h
Procedure: Total RNA was extracted from HT29 cells by utilizing TRI reagent (Sigma Aldrich, St. Louis, MO, USA) and then it was purified with the Direct-zol RNA MiniPrep Kit (Zymo Research, Irvine, CA, USA). cDNA was synthesized from purified RNA by using the iScript cDNA Synthesis Kit (Bio-Rad laboratories, Hercules, CA, USA). qRT-PCR was performed by using the iTaq Universal SYBR Green Supermix (Bio-Rad laboratories, Hercules, CA, USA) with the BioRad CFX96 thermocycler (Bio-Rad laboratories, Hercules, CA, USA). The specific primer pair sequences were 5′-[…]-3′ and 5′-[…]-3′ for β-actin; and 5′-[…]-3′ and 5′-[…]-3′ for ferritin H (heavy-chain). Cycle threshold values were normalized to the internal beta-actin control. The ratio of fold change was calculated using the Pfaffl method ([37]).

[4] = tested on: caspase 3/7 activity in FHC cells; assay: Caspase-Glo 3/7 activity assay in FHC; type: cell-based, human; settings: 16 h, 1.25-10 μM
Procedure: as §3

HT29 cells = assay: MTS cell viability assay, colon cancer cells HT29; type: cell-based, human
Procedure: as §1, §2

[5] = tested on: PERK, eIF2a, CHOP10, PARP, caspase 3 in FHC cells; assay: Western blot of ER stress and apoptosis proteins in FHC; type: cell-based, human; settings: 10 μM, 1-16 h
Procedure: Western blot analysis was conducted as described previously ([35]). Briefly, the cells were cultured in 100 mm dishes for 48 h before treatment. The cells were then treated as described in the figure legends. For vehicle-treated samples, DMSO was added to serum-free culture medium at a maximum concentration of 0.1% (v/v). After experimentation, the cells were washed twice with phosphate buffer saline (PBS) and then 100 μl of Triton lysis buffer [25 mM HEPES, 100 mM NaCl, 1 mM EDTA, 10% (v/v) glycerol, 1% (v/v) Triton X-100], containing protease and […] inhibitors, was added to the cells. Protein concentrations were determined by using BCA reagents (Thermo Fisher Scientific Inc., IL). Equal concentrations of each sample were loaded onto SDS–PAGE gels and protein bands transferred to nitrocellulose membranes using semi-dry transfer cells (TRANS-BLOTSD; Bio-Rad Laboratories, Hercules, CA). The membranes were incubated for 2 h at room temperature in Odyssey blocking buffer (LI-COR Biosciences, Lincoln, NE). Membranes were then incubated overnight at 4C with primary antibody followed by 1 h of incubation at room temperature with secondary antibody. […] Protein bands were visualized using Odyssey® CLx digital fluorescence imaging system (LI-COR, Lincoln, Nebraska). Band intensities were quantified by using ImageJ software ([36]).

[6] = tested on: reactive oxygen species in HT29 cells; assay: Oxidative stress measurement with CM-H2DCFDA (DCF); type: cell-based, human; settings: HT29, 10 μM, 8 h
Procedure: Oxidative stress was measured in cultured cells by using the probe, chloromethyl-2′,7′ dichlorodihydrofluorescein diacetate (CM-H2DCFDA or DCF) purchased from Life Technologies (Grand Island, NY). […] The cells were loaded with 5 μM DCF in phenol red-free, serum-free medium for 30 min and then the cells were treated with the appropriate drug for the indicated period of time. The cells were then trypsinized and resuspended in serum-containing, phenol red-free medium. The fluorescence of DCF was measured using an Accuri C6 flow cytometer (BD Accuri Cytometers, Ann Arbor, MI) at an excitation wavelength of 488 and emission of 533 ± 30 nm.

[7] = tested on: P-PERK, P-eIF2α, CHOP10, PARP, caspase-3, ferritin in HT29 cells; assay: Western blot of ER stress and apoptosis proteins in HT29; type: cell-based, human
Procedure: Western blot analysis was conducted as described previously ([35]). Briefly, the cells were cultured in 100 mm dishes for 48 h before treatment. The cells were then treated as described in the figure legends. For vehicle-treated samples, DMSO was added to serum-free culture medium at a maximum concentration of 0.1% (v/v). After experimentation, the cells were washed twice with phosphate buffer saline (PBS) and then 100 μl of Triton lysis buffer [25 mM HEPES, 100 mM NaCl, 1 mM EDTA, 10% (v/v) glycerol, 1% (v/v) Triton X-100], containing protease and […] inhibitors, was added to the cells. Protein concentrations were determined by using BCA reagents (Thermo Fisher Scientific Inc., IL). Equal concentrations of each sample were loaded onto SDS–PAGE gels and protein bands transferred to nitrocellulose membranes using semi-dry transfer cells (TRANS-BLOTSD; Bio-Rad Laboratories, Hercules, CA). The membranes were incubated for 2 h at room temperature in Odyssey blocking buffer (LI-COR Biosciences, Lincoln, NE). Membranes were then incubated overnight at 4C with primary antibody followed by 1 h of incubation at room temperature with secondary antibody. All primary antibodies were used at a dilution of 1:1,000 except anti-GAPDH and anti-CHOP10 antibodies which were used at 1:10,000 and 1:500 dilutions, respectively. All secondary antibodies were used at a dilution of 1:15,000. Protein bands were visualized using Odyssey® CLx digital fluorescence imaging system (LI-COR, Lincoln, Nebraska). Band intensities were quantified by using ImageJ software ([36]).

[8] = MTS, 24 h, single agents or combinations

Compound: CC1CCC2C(C)C(OCC(COC3OC4OC5(C)CCC6C(C)CCC(C3C)C46OO5)=NO)OC3OC4(C)CCC1C32OO4 (stereo not drawn) [compound (3)]
- body weight of tumor-bearing mice [1]: did not cause significant changes in the body weight
- IC50 (HCT116 cells; Homo sapiens, HCT-116, MTS viability, 24 h treatment): 11.8 µM
- cell death / survival of HCT116 cells (HCT116 cells; [8]): induced death in a concentration-dependent manner
- caspase 3/7 activity in HCT-116 [2]: significantly increased
- ferritin mRNA expression [3]: upregulated the expression of ferritin mRNA
- caspase 3/7 activity in FHC [4]: not in FHC cells
- IC50 (HT29 cells; Homo sapiens, HT-29, MTS viability, 24 h treatment): 11 µM
- cell death / survival of HT29 cells (HT29 cells; [8]): induced death in a concentration-dependent manner
- activation of PERK, eIF2a, CHOP10, PARP, caspase 3 in FHC [5]: did not increase the activation
- intracellular oxidative stress (DCF fluorescence) [6]: increased the intracellular oxidative stress levels
- CHOP10 expression ([7]; HT29, 10 μM, 6 and 8 h): marked increase
- cleavage of PARP ([7]; HT29, 10 μM, 8 and 16 h): stimulated the cleavage
- cleavage of caspase-3 ([7]; HT29, 10 μM, 8 and 16 h): stimulated the cleavage
- phosphorylation of PERK, increase compared to vehicle-treated cells ([7]; HT-29, 10 μM, 1 and 2 h): more than 7 fold
- phosphorylation of eIF2α, increase compared to vehicle-treated cells ([7]; HT-29, 10 μM, 1 and 2 h): more than 7 fold
